From US20250270199A1, “THIAZOLE DERIVATIVES AND METHODS OF USING THE SAME” (Arkansas State University - Jonesboro, priority 2022, published 2025)
In brackets after ≈: the same amount, converted by molar mass. Where two headings read alike, the source gives them in different places.

Tests used:
[1] = system: S. aureus LAC MRSA (Sa LAC); experiment: MIC, broth microdilution, Sa LAC; assay type: cell-based; conditions: Staphylococcus aureus, read-out: Minimum inhibitory concentration (MIC) Sa LAC
Method: (§1) The broth microdilution method was utilized to determine MIC values of novel thiazole derivatives against different clinically important Gram-positive bacteria according to the guidelines outlined by the Clinical and Laboratory Standards Institute (CLSI) as reported in our recent papers.^1-5 The starting concentration of compounds for MIC determination was 64 μg/mL serially diluted down the wells and the MIC values were recorded in duplicates in three independent experiments on different days.

[2] = system: S. aureus ATCC 33591 (Sa 91); experiment: MIC, broth microdilution, Sa 91; assay type: cell-based; conditions: for MIC: Staphylococcus aureus
Method: as §1

[3] = system: S. aureus ATCC 25923 (Sa 23); experiment: MIC, broth microdilution, Sa 23; assay type: cell-based; conditions: for MIC: Staphylococcus aureus
Method: as §1

[4] = system: S. aureus ATCC BAA-2312 (Sa 12); experiment: MIC, broth microdilution, Sa 12; assay type: cell-based; conditions: Staphylococcus aureus
Method: as §1

[5] = system: S. aureus subsp. aureus Rosenbach ATCC 25904 (SA Newman); experiment: MIC, broth microdilution, SA Newman; assay type: cell-based; conditions: for MIC: Staphylococcus aureus, read-out: Minimum inhibitory concentration (MIC) Sa Newman
Method: as §1

[6] = system: E. faecalis ATCC 29212 (Efs 12); experiment: MIC, broth microdilution, Efs 12; assay type: cell-based; conditions: for MIC: Enterococcus faecalis; for Minimum inhibitory concentration (MIC) Efs 12: Table 1, HT series
Method: as §1

[7] = system: S. aureus ATCC 33592 (Sa 92); experiment: MIC, broth microdilution, Sa 92; assay type: cell-based; conditions: Staphylococcus aureus
Method: as §1

[8] = system: Sa UAMS-1 MRSA ATCC 49230 (Sa UAMS); experiment: MIC, broth microdilution, Sa UAMS; assay type: cell-based, S. aureus; conditions: Staphylococcus aureus
Method: as §1

[9] = system: S. aureus ATCC 700699 (Sa 99); experiment: MIC, broth microdilution, Sa 99; assay type: cell-based; conditions: for MIC: Staphylococcus aureus; for Minimum inhibitory concentration (MIC) Sa 99: Table 1, HT series
Method: as §1

[10] = system: E. faecium ATCC 700221 (Efm 21); experiment: MIC, broth microdilution, Efm 21; assay type: cell-based; conditions: Enterococcus faecium, ATCC700221, Table 2, HTM series; read-out: Minimum inhibitory concentration (MIC) Efm 21
Method: as §1

[11] = system: S. epidermidis ATCC 700296 (Se); experiment: MIC, broth microdilution, Se; assay type: cell-based; conditions: Staphylococcus epidermidis
Method: as §1

[12] = system: E. faecalis ATCC 51299 (Efs 99); experiment: MIC, broth microdilution, Efs 99; assay type: cell-based; conditions: Enterococcus faecalis, ATCC51299; Table 2, HTM series; read-out: Minimum inhibitory concentration (MIC) Efs 99
Method: as §1

[13] = system: S. aureus subsp. aureus Rosenbach BAA-1717 (Sa USA 300); experiment: MIC, broth microdilution, Sa USA 300; assay type: cell-based; conditions: Staphylococcus aureus, read-out: Minimum inhibitory concentration (MIC) Sa USA 300
Method: as §1

[14] = ATCC33591, Table 1, HT series, read-out: Minimum inhibitory concentration (MIC) Sa 91
[15] = ATCC25923, Table 1, HT series, replicates from different days separated by comma, read-out: Minimum inhibitory concentration (MIC) Sa 23
[16] = Table 1, HT series, replicates from different days separated by comma
[17] = ATCCBAA2312, Table 1, HT series, read-out: Minimum inhibitory concentration (MIC) Sa 12
[18] = ATCC29212, Table 1, HT series, replicates from different days separated by comma, read-out: Minimum inhibitory concentration (MIC) Efs 12
[19] = replicates from different days separated by comma
[20] = ATCC33592, Table 1, HT series, read-out: Minimum inhibitory concentration (MIC) Sa 92
[21] = Table 1, HT series, read-out: Minimum inhibitory concentration (MIC) Sa UAMS
[22] = ATCC700699, Table 1, HT series, replicates from different days separated by comma, read-out: Minimum inhibitory concentration (MIC) Sa 99
[23] = ATCC33591, Table 2, HTM series, read-out: Minimum inhibitory concentration (MIC) Sa 91
[24] = ATCC25923, Table 2, HTM series, read-out: Minimum inhibitory concentration (MIC) Sa 23
[25] = ATCCBAA2312, Table 2, HTM series, read-out: Minimum inhibitory concentration (MIC) Sa 12
[26] = ATCC700296, Table 2, HTM series, read-out: Minimum inhibitory concentration (MIC) Se
[27] = ATCC29212, Table 2, HTM series, read-out: Minimum inhibitory concentration (MIC) Efs 12
[28] = ATCC33592, Table 2, HTM series, read-out: Minimum inhibitory concentration (MIC) Sa 92
[29] = Table 2, HTM series, read-out: Minimum inhibitory concentration (MIC) Sa UAMS-1
[30] = ATCC700699, Table 2, HTM series, read-out: Minimum inhibitory concentration (MIC) Sa 99

SMILES	MIC ([1]; Table 1, HT series) [µg/mL]	MIC [2, 14] [µg/mL]	MIC [3, 15] [µg/mL]	Minimum inhibitory concentration (MIC) Sa 23 [3, 16]	MIC [4, 17] [µg/mL]	MIC ([5]; Table 1, HT series) [µg/mL]	MIC [6, 18] [µg/mL]	Minimum inhibitory concentration (MIC) Efs 12 [6, 19]	MIC [7, 20] [µg/mL]	MIC [8, 21] [µg/mL]	MIC [9, 22] [µg/mL]	Minimum inhibitory concentration (MIC) Sa 99 [9, 19]	MIC [2, 23] [µg/mL]	MIC [3, 24] [µg/mL]	MIC [4, 25] [µg/mL]	MIC ([5]; Table 2, HTM series) [µg/mL]	MIC [10] [µg/mL]	MIC [11, 26] [µg/mL]	MIC [12] [µg/mL]	MIC [6, 27] [µg/mL]	also measured
Oc1ccc(-c2csc(Nc3ccc(Cl)c(Cl)c3)n2)cc1 [Compound 75, 4-(2-((3,4-dichlorophenyl)amino)thiazol-4-yl)phenol]	–	–	–	–	–	–	–	–	–	–	–	–	2 (≈ 5.93 µM)	2 (≈ 5.93 µM)	2 (≈ 5.93 µM)	4 (≈ 11.9 µM)	4 (≈ 11.9 µM)	2 (≈ 5.93 µM)	4 (≈ 11.9 µM)	4 (≈ 11.9 µM)	MIC ([13]; Table 2, HTM series): 2 µg/mL (≈ 5.93 µM); MIC [7, 28]: 2 µg/mL (≈ 5.93 µM); MIC [8, 29]: 2 µg/mL (≈ 5.93 µM); MIC [9, 30]: 2 µg/mL (≈ 5.93 µM)
CN[C@H](CC(C)C)C(=O)N[C@H]1C(=O)N[C@@H](CC(N)=O)C(=O)N[C@H]2C(=O)N[C@H]3C(=O)N[C@H](C(=O)N[C@H](C(=O)O)c4cc(O)cc(O)c4-c4cc3ccc4O)[C@H](O)c3ccc(c(Cl)c3)Oc3cc2cc(c3O[C@@H]2O[C@H](CO)[C@@H](O)[C@H](O)[C@H]2O[C@H]2C[C@](C)(N)[C@H](O)[C@H](C)O2)Oc2ccc(cc2Cl)[C@H]1O [Vanc., Vancomycin, reference compound]	–	–	–	–	–	–	–	–	–	–	–	–	–	–	–	–	–	–	–	–	MIC [1]: 1 µg/mL (≈ 0.69 µM); MIC ([2]; ATCC33591, read-out: Minimum inhibitory concentration (MIC) Sa 91): 2 µg/mL (≈ 1.38 µM); Minimum inhibitory concentration (MIC) Sa 91 ([2]; Table 2, HTM series): 2 µg/mL (≈ 1.38 µM); MIC ([3]; ATCC25923, read-out: Minimum inhibitory concentration (MIC) Sa 23): 1 µg/mL (≈ 0.69 µM); Minimum inhibitory concentration (MIC) Sa 23 ([3]; Table 2, HTM series): 1 µg/mL (≈ 0.69 µM); MIC ([4]; ATCCBAA2312, read-out: Minimum inhibitory concentration (MIC) Sa 12, Table 1, HT series): 1 µg/mL (≈ 0.69 µM); MIC ([4]; ATCCBAA2312, read-out: Minimum inhibitory concentration (MIC) Sa 12, Table 2, HTM series): 0.5 µg/mL (≈ 0.345 µM); MIC [5]: 2 µg/mL (≈ 1.38 µM); Minimum inhibitory concentration (MIC) Sa Newman ([5]; Table 2, HTM series): 2 µg/mL (≈ 1.38 µM); MIC ([11]; ATCC700296, read-out: Minimum inhibitory concentration (MIC) Se): 2 µg/mL (≈ 1.38 µM); MIC ([6]; ATCC29212, read-out: Minimum inhibitory concentration (MIC) Efs 12, Table 1, HT series, replicates from different days separated by comma): 2 µg/mL (≈ 1.38 µM); MIC ([6]; ATCC29212, read-out: Minimum inhibitory concentration (MIC) Efs 12, Table 2, HTM series): 4 µg/mL (≈ 2.76 µM); MIC [13]: 1 µg/mL (≈ 0.69 µM); MIC ([7]; ATCC33592, read-out: Minimum inhibitory concentration (MIC) Sa 92, Table 1, HT series): 1 µg/mL (≈ 0.69 µM); MIC ([7]; ATCC33592, read-out: Minimum inhibitory concentration (MIC) Sa 92, Table 2, HTM series): 2 µg/mL (≈ 1.38 µM); MIC ([8]; read-out: Minimum inhibitory concentration (MIC) Sa UAMS): 2 µg/mL (≈ 1.38 µM); MIC ([8]; read-out: Minimum inhibitory concentration (MIC) Sa UAMS-1): 1 µg/mL (≈ 0.69 µM); MIC ([9]; ATCC700699, read-out: Minimum inhibitory concentration (MIC) Sa 99, Table 1, HT series, replicates from different days separated by comma): 2 µg/mL (≈ 1.38 µM); MIC ([9]; ATCC700699, read-out: Minimum inhibitory concentration (MIC) Sa 99, Table 2, HTM series): 4 µg/mL (≈ 2.76 µM)

Further lines, with some results ahead:

MIC ([1]; Table 1, HT series) [µg/mL]	MIC [2, 14] [µg/mL]	MIC [3, 15] [µg/mL]	Minimum inhibitory concentration (MIC) Sa 23 [3, 16]	MIC [4, 17] [µg/mL]	MIC ([5]; Table 1, HT series) [µg/mL]	MIC [6, 18] [µg/mL]	Minimum inhibitory concentration (MIC) Efs 12 [6, 19]	MIC [7, 20] [µg/mL]	MIC [8, 21] [µg/mL]	MIC [9, 22] [µg/mL]	Minimum inhibitory concentration (MIC) Sa 99 [9, 19]	MIC [2, 23] [µg/mL]	MIC [3, 24] [µg/mL]	MIC [4, 25] [µg/mL]	MIC ([5]; Table 2, HTM series) [µg/mL]	MIC [10] [µg/mL]	MIC [11, 26] [µg/mL]	MIC [12] [µg/mL]	MIC [6, 27] [µg/mL]	SMILES	also measured
16 (≈ 56.1 µM)	32 (≈ 112 µM)	16 (≈ 56.1 µM)	16, 16, 16 μg/mL	16 (≈ 56.1 µM)	16 (≈ 56.1 µM)	> 32	>32, >32, >32 μg/mL	32 (≈ 112 µM)	32 (≈ 112 µM)	16 (≈ 56.1 µM)	8 µg/mL (≈ 28 µM)	–	–	–	–	–	–	–	–	Oc1ccc(-c2csc(-c3ccc(O)c(O)c3)n2)cc1 [Compound 8, 4-(4-(4-hydroxyphenyl)thiazol-2-yl)benzene-1,2-diol]	–
4 (≈ 12.5 µM)	8 (≈ 25 µM)	2 (≈ 6.26 µM)	2, 2, 2 μg/mL	8 (≈ 25 µM)	8 (≈ 25 µM)	16 (≈ 50.1 µM)	16, 16, 16 μg/mL	8 (≈ 25 µM)	8 (≈ 25 µM)	2 (≈ 6.26 µM)	2, 2, 2 μg/mL	–	–	–	–	–	–	–	–	Oc1ccc(-c2nc(-c3ccc4ccccc4c3)cs2)cc1O [Compound 14, 4-(4-(naphthalen-2-yl)thiazol-2-yl)benzene-1,2-diol]	–
–	–	–	–	–	–	–	–	–	–	–	–	8 (≈ 22.6 µM)	4 (≈ 11.3 µM)	4 (≈ 11.3 µM)	8 (≈ 22.6 µM)	4 (≈ 11.3 µM)	4 (≈ 11.3 µM)	8 (≈ 22.6 µM)	8 (≈ 22.6 µM)	Oc1ccc(-c2csc(Nc3ccc(Cl)c(Cl)c3)n2)cc1O [Compound 74, 4-(2-((3,4-dichlorophenyl)amino)thiazol-4-yl)benzene-1,2-diol]	MIC ([13]; Table 2, HTM series): 8 µg/mL (≈ 22.6 µM); MIC [7, 28]: 4 µg/mL (≈ 11.3 µM); MIC [8, 29]: 8 µg/mL (≈ 22.6 µM); MIC [9, 30]: 4 µg/mL (≈ 11.3 µM)
